Assay results reported in ChEMBL document CHEMBL3885861, “Open TG-GATES”.

Species on record: Rattus norvegicus
Experiment: Open TG-GATES - Regimen: Single
Format: toxicity, organism-based, Sprague-Dawley
Parameters: regimen Single, gender Male, age 6 weeks
Details: in vivo, po, route gavage; for TG / TP / gamma-GTP / ALP / AST / BUN / CRE / Ca / Cl / DBIL / GLC / IP / LDH / Na / PL / RALB / TBIL / TC / ALT: tissue Plasma; for APTT / Bas / Eos / Fbg / Hb / Ht / Lym / MCH / MCHC / MCV / Mono / PT / Plat / RBC / Ret / WBC / Neu: tissue Blood; for KIDNEY_L / KIDNEY_R / KIDNEY_TOTAL: tissue Kidney; for LIVER: tissue Liver
[1] = 30 mg/kg, 3 h, dose level Middle
[2] = 30 mg/kg, 6 h, dose level Middle
[3] = 30 mg/kg, 9 h, dose level Middle
[4] = 30 mg/kg, 24 h, dose level Middle
[5] = 100 mg/kg, 3 h, dose level High
[6] = 100 mg/kg, 6 h, dose level High
[7] = 100 mg/kg, 9 h, dose level High
[8] = 100 mg/kg, 24 h, dose level High

## CC(=O)N1CCN(c2ccc(OCC3COC(Cn4ccnc4)(c4ccc(Cl)cc4Cl)O3)cc2)CC1 (stereo unspecified) [KETOCONAZOLE]
10 mg/kg, 24 h, dose level Low
  TG: 94.4 mg/dL
  TP: 5.5 g/dL
  gamma-GTP: 1.2 IU/L
[1]
  TERMINAL_BW: 196.9 g
  APTT: 21.2 s
  Bas: 0%
  Eos: 0.4%
  Fbg: 275.6 mg/dL
  Hb: 12.7 g/dL
  Ht: 38.1%
  Lym: 77.2%
  MCH: 21.5 pg
  MCHC: 33.2%
  MCV: 64.6 fL
  Mono: 1.6%
  PT: 17.1 s
  Plat: 121.6 x10_4/uL
  RBC: 590.6 x10_4/ul
  Ret: 8.6%
  WBC: 75.8 x10_2/uL
  KIDNEY_L: 0.9 g
  KIDNEY_R: 0.9 g
  KIDNEY_TOTAL: 1.8 g
  LIVER: 9 g
  ALP: 1671.8 IU/L
  AST: 77 IU/L
  BUN: 11.6 mg/dL
  CRE: 0.2 mg/dL
  Ca: 10.8 mg/dL
  Cl: 105.2 meq/L
  DBIL: 0 mg/dL
  GLC: 188.2 mg/dL
  IP: 8.6 mg/dL
  LDH: 205.8 IU/L
  Na: 141.2 meq/L
  PL: 140.2 mg/dL
  RALB: 2.9 g/dL
  TBIL: 0.016 mg/dL
  TC: 75.8 mg/dL
  TG: 54 mg/dL
  TP: 5.4 g/dL
  gamma-GTP: 1.2 IU/L
[2]
  TERMINAL_BW: 199.3 g
  APTT: 21.8 s
  Bas: 0%
  Eos: 1%
  Fbg: 304.4 mg/dL
  Hb: 13.2 g/dL
  Ht: 39.5%
  Lym: 79.8%
  MCH: 21.1 pg
  MCHC: 33.5%
  MCV: 63.1 fL
  Mono: 2.2%
  Neu: 15.8%
  PT: 16.7 s
  Plat: 126 x10_4/uL
  RBC: 626.6 x10_4/ul
  Ret: 7.8%
  WBC: 67.8 x10_2/uL
  KIDNEY_L: 0.9 g
  KIDNEY_R: 0.9 g
  KIDNEY_TOTAL: 1.9 g
  LIVER: 8.4 g
  ALP: 1604 IU/L
  AST: 72.6 IU/L
  BUN: 10.2 mg/dL
  CRE: 0.2 mg/dL
  Ca: 10.9 mg/dL
  Cl: 105.6 meq/L
  DBIL: 0 mg/dL
  GLC: 179.4 mg/dL
  IP: 9.4 mg/dL
  LDH: 237.8 IU/L
  Na: 142 meq/L
  PL: 135 mg/dL
  RALB: 3.1 g/dL
  TBIL: 0.034 mg/dL
  TC: 75 mg/dL
  TG: 54.6 mg/dL
  TP: 5.5 g/dL
  gamma-GTP: 1.2 IU/L
[3]
  TERMINAL_BW: 200.7 g
  APTT: 21.4 s
  Bas: 0%
  Eos: 1%
  Fbg: 287 mg/dL
  Hb: 13.3 g/dL
  Ht: 39.8%
  Lym: 77.4%
  MCH: 21.4 pg
  MCHC: 33.4%
  MCV: 63.9 fL
  Mono: 1.4%
  Neu: 19.8%
  PT: 16.8 s
  Plat: 127.9 x10_4/uL
  RBC: 622.8 x10_4/ul
  Ret: 8.5%
  WBC: 52.8 x10_2/uL
  KIDNEY_L: 1 g
  KIDNEY_R: 1 g
  KIDNEY_TOTAL: 1.9 g
  LIVER: 8.3 g
  ALP: 1563 IU/L
  AST: 70.6 IU/L
  BUN: 10.6 mg/dL
  CRE: 0.2 mg/dL
  Ca: 10.6 mg/dL
  Cl: 105 meq/L
  DBIL: 0.002 mg/dL
  GLC: 176.2 mg/dL
  IP: 10 mg/dL
  LDH: 200.6 IU/L
  Na: 141.2 meq/L
  PL: 123.8 mg/dL
  RALB: 3.1 g/dL
  TBIL: 0.02 mg/dL
  TC: 65.6 mg/dL
  TG: 47 mg/dL
  TP: 5.4 g/dL
  gamma-GTP: 1.2 IU/L
[4]
  TERMINAL_BW: 217.1 g
  APTT: 20.6 s
  Bas: 0%
  Eos: 1%
  Fbg: 320.8 mg/dL
  Hb: 12.7 g/dL
  Ht: 38.5%
  Lym: 75.2%
  MCH: 21.1 pg
  MCHC: 33.1%
  MCV: 64 fL
  Mono: 1.6%
  Neu: 20.6%
  PT: 16.3 s
  Plat: 121.7 x10_4/uL
  RBC: 602 x10_4/ul
  Ret: 7.3%
  WBC: 66 x10_2/uL
  KIDNEY_L: 1 g
  KIDNEY_R: 1 g
  KIDNEY_TOTAL: 2 g
  LIVER: 10.7 g
  ALP: 1798.8 IU/L
  ALT: 49.4 IU/L
  AST: 75 IU/L
  BUN: 15.4 mg/dL
  CRE: 0.2 mg/dL
  Ca: 10.8 mg/dL
  Cl: 106.2 meq/L
  DBIL: 0 mg/dL
  GLC: 179 mg/dL
  IP: 7.5 mg/dL
  LDH: 220 IU/L
  Na: 142.4 meq/L
  PL: 148.8 mg/dL
  RALB: 3 g/dL
  TBIL: 0.004 mg/dL
  TC: 77.2 mg/dL
  TG: 102.2 mg/dL
  TP: 5.5 g/dL
  gamma-GTP: 1.4 IU/L
[5]
  TERMINAL_BW: 205.8 g
  APTT: 21.1 s
  Bas: 0%
  Eos: 0.8%
  Fbg: 280.8 mg/dL
  Hb: 13 g/dL
  Ht: 38.6%
  Lym: 81.4%
  MCH: 21.1 pg
  MCHC: 33.5%
  MCV: 62.9 fL
  Mono: 1.8%
  Neu: 15.2%
  PT: 16.9 s
  Plat: 125.7 x10_4/uL
  RBC: 615.2 x10_4/ul
  Ret: 8.6%
  WBC: 103.8 x10_2/uL
  KIDNEY_L: 1 g
  KIDNEY_R: 1 g
  KIDNEY_TOTAL: 1.9 g
  LIVER: 9.5 g
  ALP: 1893.6 IU/L
  AST: 73.6 IU/L
  BUN: 11.6 mg/dL
  CRE: 0.1 mg/dL
  Ca: 10.8 mg/dL
  Cl: 104.6 meq/L
  DBIL: 0 mg/dL
  GLC: 190.8 mg/dL
  IP: 9.2 mg/dL
  LDH: 182.4 IU/L
  Na: 140.4 meq/L
  PL: 151.8 mg/dL
  RALB: 2.9 g/dL
  TBIL: 0.016 mg/dL
  TC: 85 mg/dL
  TG: 59.4 mg/dL
  TP: 5.3 g/dL
  gamma-GTP: 1 IU/L
[6]
  TERMINAL_BW: 197.9 g
  APTT: 21.5 s
  Bas: 0%
  Eos: 0.6%
  Fbg: 290.8 mg/dL
  Hb: 13.4 g/dL
  Ht: 39.8%
  Lym: 80.4%
  MCH: 21.4 pg
  MCV: 63.6 fL
  Mono: 2%
  Neu: 15%
  PT: 16.6 s
  Plat: 127.9 x10_4/uL
  RBC: 625.8 x10_4/ul
  Ret: 7.5%
  WBC: 69 x10_2/uL
  KIDNEY_L: 0.9 g
  KIDNEY_R: 0.9 g
  KIDNEY_TOTAL: 1.8 g
  LIVER: 8.7 g
  ALP: 1551.6 IU/L
  AST: 68.8 IU/L
  BUN: 8.8 mg/dL
  CRE: 0.2 mg/dL
  Ca: 10.9 mg/dL
  Cl: 105.2 meq/L
  DBIL: 0 mg/dL
  GLC: 191.2 mg/dL
  IP: 9.9 mg/dL
  LDH: 257.2 IU/L
  Na: 141.4 meq/L
  PL: 142.8 mg/dL
  RALB: 3 g/dL
  TBIL: 0.02 mg/dL
  TC: 74.2 mg/dL
  TG: 94.2 mg/dL
  TP: 5.4 g/dL
  gamma-GTP: 1 IU/L
[7]
  TERMINAL_BW: 199.2 g
  APTT: 20.8 s
  Bas: 0%
  Eos: 1%
  Fbg: 298 mg/dL
  Ht: 38.7%
  Lym: 80.6%
  MCH: 21.2 pg
  MCV: 62.9 fL
  Mono: 1.6%
  Neu: 15.8%
  PT: 16.9 s
  Plat: 124.7 x10_4/uL
  RBC: 615.4 x10_4/ul
  Ret: 8.1%
  WBC: 80.7 x10_2/uL
  KIDNEY_L: 0.9 g
  KIDNEY_R: 0.9 g
  KIDNEY_TOTAL: 1.8 g
  LIVER: 8.1 g
  ALP: 1393.4 IU/L
  AST: 63.2 IU/L
  BUN: 7.4 mg/dL
  CRE: 0.2 mg/dL
  Ca: 10.7 mg/dL
  Cl: 106 meq/L
  DBIL: 0 mg/dL
  GLC: 198 mg/dL
  IP: 9.3 mg/dL
  LDH: 179 IU/L
  Na: 142.2 meq/L
  PL: 137.4 mg/dL
  RALB: 2.9 g/dL
  TBIL: 0.02 mg/dL
  TC: 73.4 mg/dL
  TG: 55.2 mg/dL
  TP: 5.3 g/dL
  gamma-GTP: 1.2 IU/L
[8]
  TERMINAL_BW: 216.3 g
  APTT: 21.5 s
  Bas: 0%
  Eos: 0.4%
  Fbg: 304.2 mg/dL
  Hb: 13.3 g/dL
  Ht: 39.9%
  Lym: 74.8%
  MCH: 21.4 pg
  MCHC: 33.2%
  MCV: 64.4 fL
  Mono: 2%
  Neu: 21.4%
  PT: 16.4 s
  Plat: 127 x10_4/uL
  RBC: 621 x10_4/ul
  Ret: 8%
  WBC: 71.7 x10_2/uL
  KIDNEY_L: 1 g
  KIDNEY_R: 1 g
  KIDNEY_TOTAL: 2 g
  LIVER: 11 g
  ALP: 1882.6 IU/L
  ALT: 55.8 IU/L
  AST: 89.8 IU/L
  BUN: 15.8 mg/dL
  CRE: 0.2 mg/dL
  Ca: 10.7 mg/dL
  Cl: 105.4 meq/L
  DBIL: 0 mg/dL
  GLC: 180.4 mg/dL
  IP: 8.4 mg/dL
  LDH: 226.4 IU/L
  Na: 142.2 meq/L
  PL: 147 mg/dL
  RALB: 2.9 g/dL
  TBIL: 0.004 mg/dL
  TC: 79.4 mg/dL
  TG: 88.6 mg/dL
  TP: 5.4 g/dL
  gamma-GTP: 1 IU/L
